Like-named read-outs stand apart in the source and are kept apart here. Non-standard residues stand in square brackets, D forms with d. Residues, ends and D or L forms follow the SMILES beside them.
Legend:
Raw 264.7 macrophages = assay: MTT viability assay, Raw 264.7 macrophages; conditions: 256 μM (highest concentration), 24 h
Description: (§1) Cell viability is expressed as percentage with respect to the control (cells not treated with the peptides). Data points represent the mean of triplicate samples ±SEM. […] The levels of statistical significance between the two peptides are indicated as follows: **p<0.01, ***p<0.001.
(§2) Cells were plated in wells of a microtiter plate, at 4×10^4 cells/well in DMEM supplemented with 2 mM glutamine and 2% FBS (for A549 cells) or DMEM containing 2 mM glutamine, non-essential amino acids (NEAA), sodium pyruvate and 2% FBS (for Raw 264.7 macrophages). After overnight incubation at 37° C. in a 5% CO2 atmosphere, the medium was replaced with 100 μl fresh serum-free medium supplemented with the peptides at different concentrations. After 24 h of peptide treatment, cell viability was determined by a MTT assay.

in vitro = conditions: for Peptide Amount (%): 24 h, 37° C.; for remaining at 5 h, 0.575 mM / remaining at 24 h, 0.575 mM: human
Description: A total of 125 μl of a 0.92 mM solution of each peptide was incubated at 37° C. with 20 μl and 60 μl human serum. Samples were collected after 5 h and 24 h of incubation, precipitated with 200 μl methanol, and centrifuged for 2 min at 10,000 g.
The crude solution was then analyzed by high-performance liquid chromatography (HPLC) and mass spectrometry. HPLC was performed with a Vydac C18 column, and the crude solution was diluted 5 times with 0.1% trifluoroacetic acid before injection and monitored at 280 nm.

P. aeruginosa ATCC 27853 = conditions: soluble free form, 1 μM, within 20 minutes in PBS
[1] = test system: P. aeruginosa ATCC 27853 biofilm; conditions: 2 hours treatment
Description: Data points are the mean±SEM of three independent experiments. The levels of statistically significant differences between the two peptides are indicated as follows *P<0.05, **P<0.01, ***P<0.001
The reference strain and the clinical isolates were grown at 37° C. in Luria-Bertani broth (LB) to mid-log phase (optical density of 0.8 at 590 nm). With the help of tweezers, silicone hydrogel narafilcon A soft CL (1-Day ACUVUE TruEye) were removed from the manufacturer's containers, and washed thrice in phosphate buffered saline (PBS). The lenses were then immersed into wells of a 24-multiwell plate, each well containing 1 mL of bacterial inoculum in 1/10 LB at a concentration of 5×10^4 colony-forming units (CFU)/mL. Noteworthy, the number of bacteria isolated from CL storage cases has been reported to range from 1 to 6×10^4 CFU/case (2, 10). Therefore, in order to reproduce a more realistic level of bacteria to which CLs can be exposed, an inoculum size of 5×10^4 CFU/mL was used for biofilm formation.
The plate was then incubated in a humidified incubator at 37° C. at 125 rpm to allow biofilm formation on the surface of both lens sides. After 20 hours of incubation, each lens was washed thrice with PBS to remove any non-adherent planktonic cells.
The lenses were then transferred into wells of a new 24-multiwell plate, each well containing serial dilutions of Esc-1a(1-21)NH2 and Esc-1a(1-21)-1cNH2 in PBS. For […] controls, the lenses were immersed in sterile PBS. The new plate was then incubated at 37° C. for 2 hours with gentle shaking (125 rpm). After peptide treatment, each lens was washed thrice in PBS and transferred into wells of another 24-multiwell plate, each well containing 350 μL of 0.5 mg/mL of 3-(4,5-dimethylthiazol-2-yl)-2,5-diphenyltetrazolium bromide (MTT, from Sigma Aldrich, Milan, Italy) in Hank's solution (136 mM NaCl; 0.34 mM Na2HPO4; 0.44 mMKH2PO4; 5.4 mM KCl; 4.1 mM NaHCO3 pH 7.2, supplemented with 5.5 mM D-glucose) as previously reported (8). The killing of biofilms was determined as a function of the inhibition of MTT reduction to insoluble formazan crystals by bacterial reductases. The plate was incubated again for 2 hours (125 rpm) at 37° C. Formazan crystals were solubilized by the addition of acidified isopropanol. During overnight incubation at room temperature the resulting purple color was absorbed by the lens. Afterward, each lens was soaked in absolute ethanol (500 μL in each well) to decolor it. Aliquots of 100 μL were finally transferred to the wells of a 96-multiwell plate and absorbance was measured at 590 nm using a microplate reader (Infine M 200, Tecan). Untreated bacterial cells in PBS were the control. Percentage of killing was calculated according to the formula: [1−(Abs of treated samples−Abs of blank/Abs of control samples-Abs of blank)][…], where the blank was the solvent PBS.

[2] = test system: A549 lung epithelial cells; assay: Wound healing assay, A549 lung epithelial cells; format: cell-based, human; conditions: A549 monolayer
Description: The percentage of cell-covered area at each time point is reported on the y-axis. Control (Ctrl) represents cells not treated with the peptides. All data are the mean of at least three independent experiments ±SEM. […] Both peptides were able to stimulate the closure of the gap produced in the monolayer of A549 cells, with the optimal concentration allowing the almost complete coverage of the wound field equal to 10 μM (for the wild type peptide, FIG. 13A) or 4 μM (for the diastereomer, FIG. 13B) within approximately 24 hours or 20 hours, respectively.
As shown in FIGS. 13A-13B, Esc-1a(1-21)NH2 and its diastereomer both stimulated wound closure although at concentrations much higher than were required to induce a similar effect in human corneal epithelial cells. This may reflect cell specific differences.

[3] = MTT viability assay, A549 cells; conditions: human
Description: as §1, §2

HaCaT keratinocytes = test system: HaCaT keratinocytes
From the text: Cell viability is expressed as percentage with respect to the control (cells not treated with the peptide). Data points represent the mean of triplicate samples ±SEM.

HaCaT cells = assay: Wound healing assay, HaCaT cells; format: cell-based, human; conditions: HaCaT monolayer
Description: The percentage of cell-covered area at each time point is reported on the y-axis. Control (Ctrl) represents cells not treated with the peptide. All data are the mean of at least three independent experiments ±SEM. […] The optimal concentration allowing gap closure was 0.25 μM.
The experimental procedure is similar to that described in Example 6 with the following two differences: (i) 40,000 cells suspended in DMEM supplemented with 4 mM glutamine and 10% FBS were seeded on each side of the ibidi culture inserts instead of 70,000 cells in KGM-2g as for corneal epithelial cells; (ii) serum-free medium was used in the wound healing assay instead of medium supplemented with 5% FBS as for corneal epithelial cells. […] Overall, the experiments indicate that Esc-1a(1-21)NH2 can stimulate wound closure in different types of mammalian cells but this is with a different kinetic or optimal concentration and thus a stereospecific mechanism involving a direct/indirect activation of different signalling transduction cascades (depending on the selected cell type) likely subtends such events.

[4] = test system: human telomerase immortalized corneal epithelial cells; assay: in vitro
Description: Human corneal epithelial cells were incubated with varying concentrations of Esc-1a(1-21)NH2 for 24 hrs then cytotoxicity determined by MTT assay. Data are the mean of 3 independent experiments.
To determine the toxicity of Esc-1a(1-21)NH2 to human telomerase immortalized corneal epithelial cells, the following experiment was performed. The MTT (3-(4,5-Dimethylthiazole-2-yl)-2,5-diphenyltetrazolium bromide) assay measures the activity of enzymes that reduce the tetrazolium blue dye to a formazan salt. Mitochondrial reductase enzymes will reduce MTT to formazan, which can be visualized by colorimetric reaction the absorbance of which can be quantified.
MTT assay was performed on human telomerase immortalized corneal epithelial cells treated with different concentrations of the peptide for 24 hrs. The test was performed in triplicate or quadruplicate wells with concentrations of the peptide of up to 100 μM using the following protocol. On day 1, plated the telomerase immortalized epithelial cells at 10,000 cells/well in a 96 well plate. Incubated the plate at 37° C. for […] to allow the cells to attach to the plate and spread. On day 2, incubated the cells in serum free media for at least 6 hrs prior to peptide treatment. On day 3, stimulated the cells with 100, 50, 25, 10, 5, 1, 0.5 and 0.1 μM Esc-1a(1-21)NH2 in quadruplicate for 24 hrs. On day 4, added 50 μl of 0.02% Benzalkonium chloride into 4 wells as a positive control for 15 minutes. Added 50 μl of serum free media into all the other wells (total volume 100 μl). Added 10 μl of MTT stock solution into each of the well. Incubated at 37° C. for 3 hours. At the end of 3 hours purple crystals were visible under the microscope. Added 100 μl of stop solution into each well using a multichannel pipette. Pipetted up and down to dissolve all the crystals. Gently popped the bubbles using a 10 μl tip. Read plate using plate reader at 590 nm abs and 635 nm reference. Subtracted reference OD value (635) from 590 OD value and plotted graph.

Q: What does the source list for `CC[C@H](C)[C@H](NC(=O)CN)C(=O)N[C@@H](Cc1ccccc1)C(=O)N[C@@H](CO)C(=O)N[C@@H](CCCCN)C(=O)N[C@@H](CC(C)C)C(=O)N[C@@H](C)C(=O)NCC(=O)N[C@@H](CCCCN)C(=O)N[C@@H](CCCCN)C(=O)N[C@H](C(=O)N[C@@H](CCCCN)C(=O)N[C@@H](CC(N)=O)C(=O)N[C@H](CC(C)C)C(=O)N[C@@H](CC(C)C)C(=O)N[C@H](C(=O)N[C@H](CO)C(=O)NCC(=O)N[C@@H](CC(C)C)C(=O)N[C@@H](CCCCN)C(=O)NCC(N)=O)[C@@H](C)CC)[C@@H](C)CC` [Esc-1a(1-21)-1cNH2] (H-GIFSKLAGKKIKN[dL]LI[dS]GLKG-NH2; N-terminus assumed)?
A: decrease in the percentage of metabolically-active cells (Raw 264.7 macrophages): ~20%; Peptide Amount (%) (in vitro; 10% human fresh serum): 45.61%; Peptide Amount (%) (in vitro; 30% human fresh serum): 25.46%; remaining at 5 h, 0.575 mM (in vitro; 10% human fresh serum): 63.3%; remaining at 24 h, 0.575 mM (in vitro; 10% human fresh serum): 45.6%; remaining at 5 h, 0.575 mM (in vitro; 30% human fresh serum): 30.1%; remaining at 24 h, 0.575 mM (in vitro; 30% human fresh serum): 25.5%; killing (P. aeruginosa ATCC 27853): ~90%; biofilm killing ([1]; 4 μM): ~35%; biofilm death ([1]; 16 μM): ~80%; biofilm killing ([1]; 32 μM): ~90%; optimal concentration allowing almost complete coverage of the wound field [2]: 4 µM; time to almost complete coverage of the wound field ([2]; at optimal concentration): ~20 h; CC50 at 24 h [3]: > 256 µM

Q: Which results are given for `CC[C@@H](C)[C@@H](NC(=O)CN)C(=O)N[C@H](Cc1ccccc1)C(=O)N[C@H](CO)C(=O)N[C@H](CCCCN)C(=O)N[C@H](CC(C)C)C(=O)N[C@H](C)C(=O)NCC(=O)N[C@H](CCCCN)C(=O)N[C@H](CCCCN)C(=O)N[C@@H](C(=O)N[C@H](CCCCN)C(=O)N[C@H](CC(N)=O)C(=O)N[C@H](CC(C)C)C(=O)N[C@H](CC(C)C)C(=O)N[C@@H](C(=O)N[C@H](CO)C(=O)NCC(=O)N[C@H](CC(C)C)C(=O)N[C@H](CCCCN)C(=O)NCC(N)=O)[C@H](C)CC)[C@H](C)CC` [all D Esc-1a(1-21)NH2] (H-G[dI][dF][dS][dK][dL][dA]G[dK][dK][dI][dK][dN][dL][dL][dI][dS]G[dL][dK]G-NH2; N-terminus assumed)?
A: reduction in the number of metabolically-active keratinocytes (HaCaT keratinocytes; 2 h treatment, 1-64 μM): did not show any remarkable reduction; toxicity to HaCaT keratinocytes (HaCaT keratinocytes; higher concentration tested, 24 h): did not show toxicity; cell-covered area vs untreated control cells (HaCaT cells): no statistically significant difference

Q: With “benzalkonium chloride [BAC, reference compound]” as the compound, how does the cytotoxicity ([4]; positive control (FIG. 4)) read?
A: ~100%

Q: And the viability ([4]; positive control, 0.02% for 15 minutes)?
A: 6.2%

— US11110195B2, “Esculentin 1a derivatives and uses thereof” (University of Houston System, priority 2013, dated 2021)
